Experimental data as given in patent publication US20090012085A1, “DOSAGE FORMS AND METHODS OF TREATMENT USING A TYROSINE KINASE INHIBITOR” (priority 2005, published 2009).
Read-outs that look alike come from different tables or passages of the source.

Experiment: Phase I dose-escalating study, plasma pharmacokinetics in patients with solid tumor
Type: in vivo, human
Settings: for Tmax: read-out: tmax, mean (% CV); for concentration at 4 h: nominal time 4 h; for concentration at 12 h: nominal time 12 h; for accumulation of the drug with continuous dosing: plasma exposures on Day 28 of dosing, compared to 4/1 schedule
Experimental: Cmax values, or maximum total plasma concentrations, of a compound of formula 1 can be measured according to techniques well known to those skilled in the art. For example, after a compound of formula 1 has been administered to a mammal, blood samples can be taken at fixed time points over a period of time (e.g. 24 hours) and the serum or plasma concentration of compound of formula 1 can be measured using standard analytical techniques known in the art. In vivo determinations Cmax can then be made by plotting the serum or plasma concentration of compound of formula 1 along the ordinate (y-axis) against time along the abscissa (x-axis).
The maleate salt of compound 1 was administered to human patients with solid tumor malignancies not amenable to conventional therapies in a Phase I dose-escalating multicenter study. The types of tumor malignancies included colorectal carcinoma, renal cell carcinoma, esophageal carcinoma, thymus carcinoma, mastocytosis, lung cancer and multiple endocrine neoplasia type II. Patients were treated in cohorts of 6 with escalating QD (once per day) doses of the maleate salt of compound 1 under fasting conditions. Each study cycle of 5 weeks consisted of 4 weeks of treatment followed by 1 week of rest (4/1 schedule), or continuous dosing without any rest period.
Full pharmacokinetic profiles were collected on Cycle 1 Day 1 (C1D1), Cycle 1 Day 28 (C1D28), and Cycle 2 Day 28 (C2D28). Preliminary pharmacokinetic parameters for the first 44 patients, i.e. the first 7 dosing groups, were estimated using nominal collection times and quality-controlled, non-quality assured bioanalytical data. The dosage amounts in Table 1A and Table 1B are free base equivalent amounts.

half-life (human, plasma, 200 mg, 200 mg QD (4/1), C1D1 (n = 6), plasma, read-out: t½, mean (% CV) (converted)): 18.8 h | AUC(0-t) (human, plasma, 200 mg, 200 mg QD (4/1), C1D28 (n = 5), plasma, read-out: AUC(0-24), mean (% CV)): 8210 ng·h/mL | concentration at 24 h (human, plasma, 200 mg, 200 mg QD (4/1), C1D28 (n = 5), plasma, read-out: C(trough, 24 h), mean (% CV)): 259 ng/mL | Cmax (human, plasma, 200 mg, 200 mg QD (4/1), C1D28 (n = 5), plasma, read-out: Cmax, mean (% CV)): 561 ng/mL | Tmax (human, plasma, 200 mg, 200 mg QD (4/1), C1D28 (n = 5), plasma): 6.6 h | half-life (human, plasma, 200 mg, 200 mg QD (4/1), C1D28 (n = 5), plasma, read-out: t½, mean (% CV) (converted)): 26.9 h | AUC(0-t) (human, plasma, 200 mg, 200 mg QD (4/1), C2D28 (n = 5), plasma, read-out: AUC(0-24), mean (% CV)): 6270 ng·h/mL | concentration at 24 h (human, plasma, 200 mg, 200 mg QD (4/1), C2D28 (n = 5), plasma, read-out: C(trough, 24 h), mean (% CV)): 211 ng/mL | Cmax (human, plasma, 200 mg, 200 mg QD (4/1), C2D28 (n = 5), plasma, read-out: Cmax, mean (% CV)): 375 ng/mL | Tmax (human, plasma, 200 mg, 200 mg QD (4/1), C2D28 (n = 5), plasma): 5.6 h | half-life (human, plasma, 200 mg, 200 mg QD (4/1), C2D28 (n = 5), plasma, read-out: t½, mean (% CV) (converted)): 15.3 h | concentration at 3 h (human, plasma, 250 mg QD, 250 mg QD 4/1 (n = 6), nominal time 3 h, read-out: Mean plasma concentration following the last dose on cycle 1 day 28): 250 ng/mL | concentration at 4 h (human, plasma, 250 mg QD, 250 mg QD 4/1 (n = 6), read-out: Mean plasma concentration following the last dose on cycle 1 day 28): 200 ng/mL | concentration at 6 h (human, plasma, 250 mg QD, 250 mg QD 4/1 (n = 6), nominal time 6 h, read-out: Mean plasma concentration following the last dose on cycle 1 day 28): 157 ng/mL | concentration at 8 h (human, plasma, 250 mg QD, 250 mg QD 4/1 (n = 6), nominal time 8 h, read-out: Mean plasma concentration following the last dose on cycle 1 day 28): 161 ng/mL | concentration at 10 h (human, plasma, 250 mg QD, 250 mg QD 4/1 (n = 6), nominal time 10 h, read-out: Mean plasma concentration following the last dose on cycle 1 day 28): 141 ng/mL | concentration at 0 h (human, plasma, 250 mg, 250 mg QD 4/1 (n = 6), nominal time 0 h, read-out: Mean plasma concentration following the last dose on cycle 1 day 28): 64.5 ng/mL | concentration at 1 h (human, plasma, 250 mg, 250 mg QD 4/1 (n = 6), nominal time 1 h, read-out: Mean plasma concentration following the last dose on cycle 1 day 28): 107 ng/mL | concentration at 2 h (human, plasma, 250 mg, 250 mg QD 4/1 (n = 6), nominal time 2 h, read-out: Mean plasma concentration following the last dose on cycle 1 day 28): 177 ng/mL | concentration at 20 h (human, plasma, 250 mg, 250 mg QD 4/1 (n = 6), nominal time 20 h, read-out: Mean plasma concentration following the last dose on cycle 1 day 28): 53.6 ng/mL | concentration at 24 h (human, plasma, 250 mg, 250 mg QD 4/1 (n = 6), nominal time 24 h, read-out: Mean plasma concentration following the last dose on cycle 1 day 28): 63 ng/mL | AUC(0-t) (human, plasma, 250 mg, 250 mg QD (4/1), C1D1 (n = 6), plasma, read-out: AUC(0-24), mean (% CV)): 7580 ng·h/mL | concentration at 24 h (human, plasma, 250 mg, 250 mg QD (4/1), C1D1 (n = 6), plasma, read-out: C(trough, 24 h), mean (% CV)): 143 ng/mL | Cmax (human, plasma, 250 mg, 250 mg QD (4/1), C1D1 (n = 6), plasma, read-out: Cmax, mean (% CV)): 848 ng/mL | Tmax (human, plasma, 250 mg, 250 mg QD (4/1), C1D1 (n = 6), plasma): 3.7 h | half-life (human, plasma, 250 mg, 250 mg QD (4/1), C1D1 (n = 6), plasma, read-out: t½, mean (% CV) (converted)): 11.5 h | AUC(0-t) (human, plasma, 250 mg, 250 mg QD (4/1), C1D28 (n = 4), plasma, read-out: AUC(0-24), mean (% CV)): 9810 ng·h/mL | concentration at 24 h (human, plasma, 250 mg, 250 mg QD (4/1), C1D28 (n = 4), plasma, read-out: C(trough, 24 h), mean (% CV)): 246 ng/mL | Cmax (human, plasma, 250 mg, 250 mg QD (4/1), C1D28 (n = 4), plasma, read-out: Cmax, mean (% CV)): 734 ng/mL | Tmax (human, plasma, 250 mg, 250 mg QD (4/1), C1D28 (n = 4), plasma): 4.5 h | half-life (human, plasma, 250 mg, 250 mg QD (4/1), C1D28 (n = 4), plasma, read-out: t½, mean (% CV) (converted)): 22.4 h | concentration at 24 h (human, plasma, 250 mg, 250 mg QD (4/1), C2D28 (n = 4), plasma, read-out: C(trough, 24 h), mean (% CV)): 279 ng/mL | Cmax (human, plasma, 250 mg, 250 mg QD (4/1), C2D28 (n = 4), plasma, read-out: Cmax, mean (% CV)): 748 ng/mL | Tmax (human, plasma, 250 mg, 250 mg QD (4/1), C2D28 (n = 4), plasma): 5.5 h | half-life (human, plasma, 250 mg, 250 mg QD (4/1), C2D28 (n = 4), plasma, read-out: t½, mean (% CV) (converted)): 13.2 h | half-life (human, plasma, 4/1 schedule, blood samples for 144 hours after the last dose on Day 28, across the dose groups, read-out: longer t1/2, mean estimates): 13.2 to 26.9 h | half-life (human, plasma, C1D1, across dose groups, read-out: mean terminal plasma half-life (t1/2) over 24 hours after dosing): 10.8 to 18.8 h | concentration at 12 h (human, plasma, oral, 25 mg QD, 25 mg QD 4/1 (n = 6), read-out: Mean plasma concentration following the last dose on cycle 1 day 28): 30.1 ng/mL | concentration at 4 h (human, plasma, oral, 25 mg, 25 mg QD 4/1 (n = 6), read-out: Mean plasma concentration following the last dose on cycle 1 day 28): 58.3 ng/mL | AUC(0-t) (human, plasma, oral, 25 mg, 25 mg QD (4/1), C2D28 (n = 5), plasma, read-out: AUC(0-24), mean (% CV)): 794 ng·h/mL | concentration at 24 h (human, plasma, oral, 25 mg, 25 mg QD (4/1), C2D28 (n = 5), plasma, read-out: C(trough, 24 h), mean (% CV)): 21.4 ng/mL | AUC(0-t) (human, plasma, oral, 25 mg, one patient excluded from the mean, 25 mg QD 4/1, C2D28, read-out: AUC(0-24)): 7000 ng·h/mL | Cmax (human, plasma, oral, 25 mg, one patient excluded from the mean, 25 mg QD 4/1, C2D28, read-out: Cmax): 394 ng/mL | concentration at 12 h (human, plasma, oral, 50 mg QD, 50 mg QD 4/1 (n = 5), read-out: Mean plasma concentration following the last dose on cycle 1 day 28): 50.4 ng/mL | concentration at 4 h (human, plasma, oral, 50 mg, 50 mg QD 4/1 (n = 5), read-out: Mean plasma concentration following the last dose on cycle 1 day 28): 81.1 ng/mL | concentration at 12 h (human, plasma, oral, 100 mg QD, 100 mg QD 4/1 (n = 6), read-out: Mean plasma concentration following the last dose on cycle 1 day 28): 204 ng/mL | concentration at 12 h (human, plasma, oral, 100 mg, 100 mg QD Continuous (n = 4), read-out: Mean plasma concentration following the last dose on cycle 1 day 28): 377 ng/mL | concentration at 12 h (human, plasma, oral, 150 mg QD, 150 mg QD 4/1 (n = 5), read-out: Mean plasma concentration following the last dose on cycle 1 day 28): 91.3 ng/mL | concentration at 4 h (human, plasma, oral, 150 mg, 150 mg QD 4/1 (n = 5), read-out: Mean plasma concentration following the last dose on cycle 1 day 28): 231 ng/mL | concentration at 12 h (human, plasma, oral, 150 mg, 150 mg QD Continuous (n = 6), read-out: Mean plasma concentration following the last dose on cycle 1 day 28): 465 ng/mL | concentration at 12 h (human, plasma, oral, 200 mg, 200 mg QD 4/1 (n = 5), read-out: Mean plasma concentration following the last dose on cycle 1 day 28): 355 ng/mL | concentration at 12 h (human, plasma, oral, 250 mg, 250 mg QD 4/1 (n = 6), read-out: Mean plasma concentration following the last dose on cycle 1 day 28): 130 ng/mL | AUC(0-t) (human, plasma, oral, 250 mg, 250 mg QD (4/1), C2D28 (n = 4), plasma, read-out: AUC(0-24), mean (% CV)): 9770 ng·h/mL | half-life (human, plasma, oral, patients with solid tumors, read-out: effective t1/2 of elimination from plasma): 11 to 19 h | concentration at 1 week (human, extrapolating beyond the measured plasma concentrations at 144 hours, rest period after the last dose of Cycle 1, read-out: concentration prior to the start of dosing in the following cycle): < 5 ng/mL | higher exposures on C2D28 compared with C1D28 (one patient excluded from the mean, 25 mg QD 4/1): approximately 5 fold | accumulation of the drug with continuous dosing: no unexpected accumulation | accumulation of the drug with continuous dosing (listed as compound of formula 1): no unexpected drug accumulation
Compound: Cc1[nH]c(/C=C2\C(=O)Nc3ccc(F)cc32)c(C)c1C(=O)NC[C@H](O)CN1CCOCC1 [compound 1, 5-[(Z)-(5-fluoro-2-oxo-1,2-dihydro-3H-indol-3-ylidene)methyl]-N-[(2S)-2-hydroxy-3-morpholin-4-ylpropyl]-2,4-dimethyl-1H-pyrrole-3-carboxamide]
